Measurements published in ChEMBL document CHEMBL4311957, “Recent advances in natural antifungal flavonoids and their derivatives” (Bioorg Med Chem Lett, 2019).
Converted amounts (≈) assume the structure as drawn.

Legend:
Candida albicans [1] = experiment: Antifungal activity against Candida albicans after 24 hrs by broth dilution method; format: functional
[2] = test system: Trichophyton mentagrophytes; experiment: Antifungal activity against Trichophyton mentagrophytes after 24 hrs by broth dilution method; format: functional
Aspergillus fumigatus = experiment: Fungicidal activity against Aspergillus fumigatus after 24 hrs by broth dilution method; format: functional
[3] = test system: Trichophyton mentagrophytes; experiment: Fungicidal activity against Trichophyton mentagrophytes after 24 hrs by broth dilution method; format: functional
Cryptococcus neoformans [4] = experiment: Antifungal activity against Cryptococcus neoformans ATCC 90112 after 48 hrs by CLSI-based method; format: functional; conditions: ATCC 90112, 48 h
Cryptococcus neoformans [5] = experiment: Antifungal activity against Cryptococcus neoformans ATCC 90112 after 48 hrs in presence of AmB by CLSI-based method; format: functional; conditions: ATCC 90112, 48 h
Trichophyton rubrum [6] = experiment: Antifungal activity against Trichophyton rubrum ATCC MYA3108 by CLSI-based microdilution method; format: functional
Trichophyton rubrum [7] = experiment: Antifungal activity against Trichophyton rubrum deltaTruMDR2 by CLSI-based microdilution method; format: functional
[8] = Inhibition of fatty acid synthase in Trichophyton rubrum ATCC MYA3108
[9] = Inhibition of fatty acid synthase in Trichophyton rubrum deltaTruMDR2
Candida parapsilosis [10] = experiment: Antifungal activity against Candida parapsilosis 96 by microdilution method; format: functional; conditions: Lodderomyces parapsilosis
Candida tropicalis [11] = experiment: Antifungal activity against Candida tropicalis 166 by microdilution method; format: functional
Pichia kudriavzevii [12] = experiment: Antifungal activity against Candida krusei 168 by microdilution method; format: functional
Candida albicans [13] = experiment: Antifungal activity against Candida albicans 501 by microdilution method; format: functional
Candida albicans [14] = experiment: Antifungal activity against Candida albicans 498 by microdilution method; format: functional
Candida albicans [15] = experiment: Antifungal activity against Candida albicans 53 by microdilution method; format: functional
Candida albicans [16] = experiment: Antifungal activity against Candida albicans ATCC 10231 by microdilution method; format: functional
Nakaseomyces glabratus [17] = experiment: Antifungal activity against Candida glabrata 507 by microdilution method; format: functional
Nakaseomyces glabratus [18] = experiment: Antifungal activity against Candida glabrata 531 by microdilution method; format: functional
Nakaseomyces glabratus [19] = experiment: Antifungal activity against Candida glabrata 587 by microdilution method; format: functional
Nakaseomyces glabratus [20] = experiment: Antifungal activity against Candida glabrata 510 by microdilution method; format: functional
Nakaseomyces glabratus [21] = experiment: Antifungal activity against Candida glabrata 493 by microdilution method; format: functional
Nakaseomyces glabratus [22] = experiment: Antifungal activity against Candida glabrata 482 by microdilution method; format: functional
Cryptococcus neoformans [23] = experiment: Antifungal activity against Cryptococcus neoformans by microdilution method; format: functional
Candida albicans [24] = experiment: Antifungal activity against Candida albicans ATCC 10231 after 48 hrs by CLSI-based broth microdilution method; format: functional; conditions: ATCC 10231, 48 h
Candida tropicalis [25] = experiment: Antifungal activity against Candida tropicalis CCC 131-2000 after 48 hrs by CLSI-based broth microdilution method; format: functional; conditions: CCC 131-2000, 48 h
Candida albicans [26] = experiment: Synergistic antifungal activity against FLC-resistant Candida albicans after 24 to 72 hrs by checkerboard microbroth dilution method; format: functional
Cryptococcus neoformans [27] = experiment: Synergistic antifungal activity against FLC-resistant Cryptococcus neoformans 32609 after 24 to 72 hrs by checkerboard microbroth dilution method; format: functional
Candida tropicalis [28] = experiment: Synergistic antifungal activity against FLC-resistant Candida tropicalis 2718 after 24 to 72 hrs by checkerboard microbroth dilution method; format: functional
Candida parapsilosis [29] = experiment: Synergistic antifungal activity against FLC-resistant Candida parapsilosis ATCC 22019 after 24 to 72 hrs by checkerboard microbroth dilution method; format: functional; conditions: Lodderomyces parapsilosis
Pichia kudriavzevii [30] = experiment: Synergistic antifungal activity against FLC-resistant Candida krusei ATCC2340 after 24 to 72 hrs by checkerboard microbroth dilution method; format: functional
Nakaseomyces glabratus [31] = experiment: Synergistic antifungal activity against FLC-resistant Candida glabrata ATCC1182 after 24 to 72 hrs by checkerboard microbroth dilution method; format: functional
Candida albicans [32] = experiment: Synergistic antifungal activity against FLC-resistant Candida albicans after 24 to 72 hrs in presence of FLC by checkerboard microbroth dilution method; format: functional
Cryptococcus neoformans [33] = experiment: Synergistic antifungal activity against FLC-resistant Cryptococcus neoformans 32609 after 24 to 72 hrs in presence of FLC by checkerboard microbroth dilution method; format: functional
Candida tropicalis [34] = experiment: Synergistic antifungal activity against FLC-resistant Candida tropicalis 2718 after 24 to 72 hrs in presence of FLC by checkerboard microbroth dilution method; format: functional
Candida parapsilosis [35] = experiment: Synergistic antifungal activity against FLC-resistant Candida parapsilosis ATCC 22019 after 24 to 72 hrs in presence of FLC by checkerboard microbroth dilution method; format: functional; conditions: Lodderomyces parapsilosis
Pichia kudriavzevii [36] = experiment: Synergistic antifungal activity against FLC-resistant Candida krusei ATCC2340 after 24 to 72 hrs in presence of FLC by checkerboard microbroth dilution method; format: functional
Nakaseomyces glabratus [37] = experiment: Synergistic antifungal activity against FLC-resistant Candida glabrata ATCC1182 after 24 to 72 hrs in presence of FLC by checkerboard microbroth dilution method; format: functional
Candida albicans [38] = experiment: Antifungal activity against Candida albicans ATCC 90028 by ELISA; format: functional
Candida parapsilosis [39] = experiment: Antifungal activity against Candida parapsilosis ATCC 22019 by ELISA; format: functional; conditions: Lodderomyces parapsilosis
Malassezia furfur = experiment: Antifungal activity against Malassezia furfur KCTC 7744 by ELISA; format: functional
Trichophyton rubrum [40] = experiment: Antifungal activity against Trichophyton rubrum KCTC 6345 by ELISA; format: functional
Trichosporon beigelii = experiment: Antifungal activity against Trichosporon beigelii KCTC 7707 by ELISA; format: functional

O=C1NC(=O)C(C(=O)/C=C/c2coc3ccccc3c2=O)C(=O)N1
MIC (Candida albicans [1]): 12.5 µg/mL (≈ 38.3 µM) | MIC [2]: 12.5 µg/mL (≈ 38.3 µM) | MFC (Aspergillus fumigatus): 50 µg/mL (≈ 153 µM) | MFC [3]: 50 µg/mL (≈ 153 µM)

COc1cc2oc(-c3ccc(O)c(O)c3)cc(=O)c2c(O)c1O
MIC (Cryptococcus neoformans [4]): 3.9 µg/mL (≈ 12.3 µM) | MIC (Cryptococcus neoformans [5]): 1 µg/mL

O=C(/C=C/c1ccccc1)c1ccccc1 [CHALCONE]
MIC (Trichophyton rubrum [6]): 7.5 µg/mL (≈ 36 µM) | MIC (Trichophyton rubrum [7]): 1.9 µg/mL (≈ 9.12 µM) | IC50 [8]: 68.23 µg/mL (≈ 328 µM) | IC50 [9]: 17.1 µg/mL (≈ 82.1 µM)

O=c1c(O)c(-c2ccccc2)oc2cc(O)cc(O)c12 [GALANGIN]
MIC (Candida parapsilosis [10]): > 83 µg/mL | MIC (Candida tropicalis [11]): > 83 µg/mL | MIC (Pichia kudriavzevii [12]): > 83 µg/mL | MIC (Candida albicans [13]): > 83 µg/mL | MIC (Candida albicans [14]): > 83 µg/mL | MIC (Candida albicans [15]): > 83 µg/mL | MIC (Candida albicans [16]): > 83 µg/mL | MIC (Nakaseomyces glabratus [17]): 15.6 to 62.5 µg/mL (≈ 57.7 to 231 µM) | MIC (Nakaseomyces glabratus [18]): 15.6 to 62.5 µg/mL (≈ 57.7 to 231 µM) | MIC (Nakaseomyces glabratus [19]): 15.6 to 62.5 µg/mL (≈ 57.7 to 231 µM) | MIC (Nakaseomyces glabratus [20]): 15.6 to 62.5 µg/mL (≈ 57.7 to 231 µM) | MIC (Nakaseomyces glabratus [21]): 15.6 to 62.5 µg/mL (≈ 57.7 to 231 µM) | MIC (Nakaseomyces glabratus [22]): 15.6 to 62.5 µg/mL (≈ 57.7 to 231 µM) | MIC (Cryptococcus neoformans [23]): 31.2 µg/mL (≈ 115 µM) | MIC (Candida albicans [24]): 31.2 µg/mL (≈ 115 µM) | MIC (Candida tropicalis [25]): 31.2 µg/mL (≈ 115 µM) | MIC (Trichophyton rubrum [6]): > 1000 µg/mL | MIC (Trichophyton rubrum [7]): > 1000 µg/mL

CC1(C)C=Cc2c(ccc3c2OC[C@@H](c2ccc(O)cc2O)C3)O1 [GLABRIDIN]
MIC (Candida albicans [26]): 32 µg/mL | MIC (Cryptococcus neoformans [27]): 16 µg/mL | MIC (Candida tropicalis [28]): 64 µg/mL | MIC (Candida parapsilosis [29]): 64 µg/mL | MIC (Pichia kudriavzevii [30]): 16 to 64 µg/mL | MIC (Nakaseomyces glabratus [31]): 64 µg/mL | MIC (Candida albicans [32]): 64 µg/mL | MIC (Cryptococcus neoformans [33]): 16 to 64 µg/mL | MIC (Candida tropicalis [34]): 1 to 16 µg/mL | MIC (Candida parapsilosis [35]): 1 to 16 µg/mL | MIC (Pichia kudriavzevii [36]): 1 to 16 µg/mL | MIC (Nakaseomyces glabratus [37]): 1 to 16 µg/mL

O=c1c(O[C@@H]2O[C@H](CO)[C@@H](O)[C@H](O)[C@H]2O)c(-c2ccc(O)c(O)c2)oc2cc(O)cc(O)c12 [ISOQUERCETIN]
MIC (Candida albicans [38]): 2.5 µg/mL (≈ 5.38 µM) | MIC (Candida parapsilosis [39]): 2.5 µg/mL (≈ 5.38 µM) | MIC (Malassezia furfur): 2.5 to 5 µg/mL (≈ 5.38 to 10.8 µM) | MIC (Trichophyton rubrum [40]): 2.5 µg/mL (≈ 5.38 µM) | MIC (Trichosporon beigelii): 5 µg/mL (≈ 10.8 µM)
